Data published in ChEMBL document CHEMBL3608280, “Tetramic Acids and Pyridone Alkaloids from the Endolichenic Fungus Tolypocladium cylindrosporum” (J Nat Prod, 2015).

Assays:
MDA-MB-231 = assay: Cytotoxicity against human MDA-MB-231 cells assessed as growth inhibition after 48 hrs by MTT assay; format: functional, cell-based; conditions: MDA-MB-231, 48 h
A549 [1] = assay: Cytotoxicity against human A549 cells assessed as growth inhibition after 48 hrs by MTT assay; format: functional, cell-based; conditions: A549, 48 h
A2780 = assay: Cytotoxicity against human A2780 cells assessed as growth inhibition after 48 hrs by MTT assay; format: functional, cell-based; conditions: A2780, 48 h
K562 = assay: Cytotoxicity against human K562 cells assessed as growth inhibition after 48 hrs by MTT assay; format: functional, cell-based; conditions: K562, 48 h
A549 [2] = assay: Cell cycle arrest in human A549 cells assessed as accumulation at G0/G1 phase after 24 hrs by propidium iodide staining-based flow cytometric analysis; format: functional
A549 [3] = assay: Cell cycle arrest in human A549 cells assessed as accumulation at G1 phase at 1 uM after 24 hrs by propidium iodide staining-based flow cytometric analysis (reference value: 52.73%); format: functional
A549 [4] = assay: Cell cycle arrest in human A549 cells assessed as accumulation at S phase at 1 uM after 24 hrs by propidium iodide staining-based flow cytometric analysis (reference value: 36.98%); format: functional
A549 [5] = assay: Cell cycle arrest in human A549 cells assessed as accumulation at G2/M phase at 1 uM after 24 hrs by propidium iodide staining-based flow cytometric analysis (reference value: 10.29%); format: functional
A549 [6] = assay: Cell cycle arrest in human A549 cells assessed as accumulation at G1 phase at 2 uM after 24 hrs by propidium iodide staining-based flow cytometric analysis (reference value: 52.73%); format: functional
A549 [7] = assay: Cell cycle arrest in human A549 cells assessed as accumulation at S phase at 2 uM after 24 hrs by propidium iodide staining-based flow cytometric analysis (reference value: 36.98%); format: functional
A549 [8] = assay: Cell cycle arrest in human A549 cells assessed as accumulation at G2/M phase at 2 uM after 24 hrs by propidium iodide staining-based flow cytometric analysis (reference value: 10.29%); format: functional
A549 [9] = assay: Induction of apoptosis in human A549 cells after 48 hrs by annexin V-FITC/propidium iodide staining-based flow cytometric analysis; format: functional, cell-based
A549 [10] = assay: Induction of apoptosis in human A549 cells assessed as early apoptotic cells at 1 uM after 48 hrs by annexin V-FITC/propidium iodide staining-based flow cytometric analysis (reference value: 0.86%); format: functional
A549 [11] = assay: Induction of apoptosis in human A549 cells assessed as late apoptotic cells at 1 uM after 48 hrs by annexin V-FITC/propidium iodide staining-based flow cytometric analysis (reference value: 3.94%); format: functional
A549 [12] = assay: Induction of apoptosis in human A549 cells assessed as dead cells at 1 uM after 48 hrs by annexin V-FITC/propidium iodide staining-based flow cytometric analysis (reference value: 0.43%); format: functional
A549 [13] = assay: Induction of apoptosis in human A549 cells assessed as early apoptotic cells at 2 uM after 48 hrs by annexin V-FITC/propidium iodide staining-based flow cytometric analysis (reference value: 0.86%); format: functional
A549 [14] = assay: Induction of apoptosis in human A549 cells assessed as late apoptotic cells at 2 uM after 48 hrs by annexin V-FITC/propidium iodide staining-based flow cytometric analysis (reference value: 3.94%); format: functional
A549 [15] = assay: Induction of apoptosis in human A549 cells assessed as dead cells at 2 uM after 48 hrs by annexin V-FITC/propidium iodide staining-based flow cytometric analysis (reference value: 0.43%); format: functional

C/C=C\C[C@H](C)C[C@H](C)/C(O)=C1/C(=O)N/C(=C\c2ccc(O)cc2)C1=O
IC50 (MDA-MB-231): > 40 µM | IC50 (A549 [1]): > 40 µM | IC50 (A2780): > 40 µM | IC50 (K562): > 40 µM

C=C[C@@H]1C[C@H](C)C[C@H](C)C1c1c(O)ccn(O)c1=O (stereo partly drawn)
IC50 (MDA-MB-231): 1.63 µM | IC50 (A549 [1]): 1.24 µM | IC50 (A2780): 1.36 µM | IC50 (K562): 1.83 µM | Activity (A549 [2]): Dose-dependent effect | Activity (A549 [3]): 78.16% | Activity (A549 [4]): 17.49% | Activity (A549 [5]): 4.35% | Activity (A549 [6]): 82.63% | Activity (A549 [7]): 16.02% | Activity (A549 [8]): 1.35% | Activity (A549 [9]): Dose-dependent effect | Activity (A549 [10]): 3% | Activity (A549 [11]): 21.94% | Activity (A549 [12]): 4.25% | Activity (A549 [13]): 1.06% | Activity (A549 [14]): 28.3% | Activity (A549 [15]): 5.41%

COc1cccc2c1C(=O)c1c(O)c3c(c(O)c1C2=O)C[C@@](O)(C(=O)CO)C[C@@H]3O[C@H]1C[C@H](N)[C@H](O)[C@H](C)O1 [DOXORUBICIN]
IC50 (A549 [1]): 0.51 µM | IC50 (A2780): 0.6 µM | IC50 (K562): 1.1 µM

CC1Oc2c(-c3ccc(O)cc3)c[nH]c(=O)c2[C@@H]2[C@@H](C)C[C@@H](C)C[C@@H]12 (stereo partly drawn)
IC50 (MDA-MB-231): > 40 µM | IC50 (A549 [1]): > 40 µM | IC50 (A2780): > 40 µM | IC50 (K562): > 40 µM

CC(C)(O)[C@@H]1C[C@@H](O)[C@]2(C)[C@H](CC[C@@]3(C)[C@H]2CC[C@H]2Cc4c([nH]c5ccccc45)[C@@]23C)O1 [TERPENDOLE E]
IC50 (MDA-MB-231): 39.2 µM | IC50 (A549 [1]): 18.8 µM | IC50 (A2780): 31.1 µM | IC50 (K562): 38.7 µM

Cc1cc(O)c2oc(=O)c(O)c(-c3ccc(O)cc3)c2c1
IC50 (MDA-MB-231): > 40 µM | IC50 (A549 [1]): > 40 µM | IC50 (A2780): > 40 µM | IC50 (K562): > 40 µM

C/C=C\C[C@@H](C)C[C@@H](C)/C(O)=C1/C(=O)N/C(=C\c2ccc(O)cc2)C1=O
IC50 (MDA-MB-231): > 40 µM | IC50 (A549 [1]): > 40 µM | IC50 (A2780): > 40 µM | IC50 (K562): > 40 µM

C/C=C\C[C@H](C)C[C@H](C)/C(O)=C1/C(=O)N[C@H]([C@H](O)c2ccc(O)cc2)C1=O
IC50 (MDA-MB-231): > 40 µM | IC50 (A549 [1]): > 40 µM | IC50 (A2780): > 40 µM | IC50 (K562): > 40 µM

C/C=C\C[C@H](C)C[C@H](C)/C(O)=C1/C(=O)N[C@@H]([C@@H](O)c2ccc(O)cc2)C1=O
IC50 (MDA-MB-231): > 40 µM | IC50 (A549 [1]): > 40 µM | IC50 (A2780): > 40 µM | IC50 (K562): > 40 µM

C=C[C@@H]1C[C@H](C)C[C@H](C)C1c1c(O)cc[nH]c1=O (stereo partly drawn)
IC50 (MDA-MB-231): > 40 µM | IC50 (A549 [1]): > 40 µM | IC50 (A2780): > 40 µM | IC50 (K562): > 40 µM
